One test has as its target T1, Aurora A (Homo sapiens, UniProt O14965).
T1 sequence (O14965 1-403): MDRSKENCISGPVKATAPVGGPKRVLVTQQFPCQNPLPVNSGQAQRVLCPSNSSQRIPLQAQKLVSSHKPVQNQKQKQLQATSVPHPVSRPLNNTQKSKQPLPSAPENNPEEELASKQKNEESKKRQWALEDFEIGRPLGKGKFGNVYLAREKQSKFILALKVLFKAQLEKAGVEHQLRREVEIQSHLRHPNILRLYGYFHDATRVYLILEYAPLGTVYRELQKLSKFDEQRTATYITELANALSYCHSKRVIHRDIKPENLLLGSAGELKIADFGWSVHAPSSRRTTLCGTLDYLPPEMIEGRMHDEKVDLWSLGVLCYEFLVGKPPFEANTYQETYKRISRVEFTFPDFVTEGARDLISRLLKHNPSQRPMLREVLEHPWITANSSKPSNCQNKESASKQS
Briefly: Aurora A enzyme inhibition (time-resolved fluorescence, STK substrate-2). Type of test: biochemical. The note with it: 1 mM ATP. The procedure, abridged:
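Phosphorylation of biotinylated STK substrate-2 at 1 mM ATP, 1 h, Hepes buffer pH 7.4 (MgCl2, sodium orthovanadate, Triton X-100). After EDTA quench, 665/615 nm time-resolved fluorescence ratio read via europium anti-phospho antibody and SA-XL665; IC50 from exponential fit versus inhibitor concentration.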

A further test relates to NCI-H1299 cells. As to the kind of experiment: Induction of polyploidy in H1299. Type of test: cell-based, Human. The note with it: NCI-H1299, 48 hours. The protocol: To determine the induction of polyploidy in H1299 cells, NCI-H1299 were seeded (4K/well) into 96-well culture plates (tissue culture grade, black, flat-clear bottom) and incubated overnight to produce cell-to-plate adherence. Inhibitors at varying concentrations were added into duplicate wells containing cells and culture media (RPMI 1640, 10% fetal calf serum) and incubated at 37 C for 48 hours. The plates were then washed with PBS and the adherent cells fixed by incubating with 3% formalin for 1 hour. After washing four times with PBS, the cells were then stained with Hoechst and subjected to fluorescent (360 i/460e) microscopic high content analysis to determine the effect of inhibitors on nuclear size. Polyploid cells (≧4N) were defined as those having nuclear area>750μ^2. Potency was expressed as the concentration of inhibitor necessary to induce polyploidy in 15% of cells (EC15) and was calculated from least squares analysis of the log dose-response.

A further test addresses KDR (Homo sapiens, UniProt P35968). As to the kind of experiment: KDR HTRF in vitro kinase assay. Type of test: biochemical. Also on record: purified enzyme (His6-KDR 789-1354, MW 63 kD); His6 (N). The note with it: 1 mM ATP; read-out: KDR enzyme inhibition data (Ki). The procedure, abridged: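 His6-KDR 789-1354 (7 ng/well) with 0.5 μM biotinylated peptide substrate and 1 mM ATP in HEPES pH 7.1, MgCl2/MnCl2, 60 min at room temperature. EDTA-quenched, detected by streptavidin-XL-665 plus Eu-kryptate anti-phosphotyrosine HTRF after 3 h; IC50 from 620/665 nm ratio.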

A further test concerns the target T2, Aurora B (Homo sapiens, UniProt Q96GD4).
T2 construct: Active Aurora B enzyme (recombinant residues 1-344)
Briefly: Aurora B enzyme inhibition (time-resolved fluorescence, histone H3 peptide). Type of test: biochemical. The note with it: 1 mM ATP. The procedure, abridged:
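IC50s came from an exponential fit of inhibition against inhibitor concentration, with phosphorylation read as the 665/615 nm time-resolved fluorescence ratio after EDTA stop using Eu-anti-phospho-H3 and SA-APC. The 1 h reaction used Aurora B 1-344 plus GST-INCENP, biotin-histone H3 1-21 peptide and 1 mM ATP in pH 7.4 HEPES buffer.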

T2 sequence (Q96GD4 whole entry, the tested form may be a part): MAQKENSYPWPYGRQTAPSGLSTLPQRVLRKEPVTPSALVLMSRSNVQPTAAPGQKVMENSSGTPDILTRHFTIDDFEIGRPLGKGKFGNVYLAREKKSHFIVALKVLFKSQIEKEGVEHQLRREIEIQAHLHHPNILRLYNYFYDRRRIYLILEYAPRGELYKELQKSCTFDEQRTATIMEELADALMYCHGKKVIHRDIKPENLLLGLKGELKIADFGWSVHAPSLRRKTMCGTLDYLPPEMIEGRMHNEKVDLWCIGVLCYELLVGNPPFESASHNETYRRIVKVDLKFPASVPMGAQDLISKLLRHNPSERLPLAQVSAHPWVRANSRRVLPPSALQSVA
T2 sequence (Q9NQS7 826-918 partner limits assumed): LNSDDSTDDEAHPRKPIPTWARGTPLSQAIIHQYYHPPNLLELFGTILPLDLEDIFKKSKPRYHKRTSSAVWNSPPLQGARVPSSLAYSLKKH
Chain of KDR (P35968 789-1354): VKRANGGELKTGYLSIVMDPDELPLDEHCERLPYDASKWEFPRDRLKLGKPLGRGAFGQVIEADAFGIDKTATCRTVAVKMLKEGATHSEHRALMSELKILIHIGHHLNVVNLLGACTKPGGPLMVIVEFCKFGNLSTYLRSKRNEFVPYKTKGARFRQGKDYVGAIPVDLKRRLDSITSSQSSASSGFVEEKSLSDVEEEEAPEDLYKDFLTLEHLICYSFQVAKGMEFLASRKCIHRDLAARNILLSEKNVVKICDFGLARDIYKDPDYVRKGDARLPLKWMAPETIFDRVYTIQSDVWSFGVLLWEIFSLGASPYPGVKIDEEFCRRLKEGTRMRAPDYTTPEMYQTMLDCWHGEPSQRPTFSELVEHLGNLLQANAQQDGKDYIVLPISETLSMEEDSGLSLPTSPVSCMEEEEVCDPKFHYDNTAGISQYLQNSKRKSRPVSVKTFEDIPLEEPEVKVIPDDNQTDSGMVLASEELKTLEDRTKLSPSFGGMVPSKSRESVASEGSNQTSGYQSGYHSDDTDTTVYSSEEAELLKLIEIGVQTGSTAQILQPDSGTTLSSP

Consider `CNC(=O)[C@@H]1[C@H](Nc2nc(Nc3cnn(C)c3)ncc2F)[C@H]2C=C[C@@H]1C2.CNC(=O)[C@H]1[C@@H](Nc2nc(Nc3cnn(C)c3)ncc2F)[C@@H]2C=C[C@H]1C2` (mixture of isomers) [Example 9, (1S,2S,3R,4R)-3-({5-fluoro-2-[(1-methyl-1H-pyrazol-4-yl)amino]pyrimidin-4-yl}amino)-N-methylbicyclo[2.2.1]hept-5-ene-2-carboxamide and (1R,2R,3S,4S)-3-({5-fluoro-2-[(1-methyl-1H-pyrazol-4-yl)amino]pyrimidin-4-yl}amino)-N-methylbicyclo[2.2.1]hept-5-ene-2-carboxamide], for which the Ki on Aurora A was 100 to 1000 nM; at KDR it was greater than 5000 nM; on Aurora B, less than 100 nM. For the same compound, the “EC15 (concentration of inhibitor necessary to induce polyploidy in 15% of cells)” value with NCI-H1299 cells is listed as “A (“A” represents an EC15 of less than 0.1 μM)”.

Regarding `Cn1cc(Nc2ncc(F)c(N[C@@H]3[C@H]4CC[C@H](C4)[C@@H]3C(N)=O)n2)cn1.Cn1cc(Nc2ncc(F)c(N[C@H]3[C@@H]4CC[C@@H](C4)[C@H]3C(N)=O)n2)cn1` (mixture of isomers) [Example 12, (1R,2S,3R,4S)-3-({5-fluoro-2-[(1-methyl-1H-pyrazol-4-yl)amino]pyrimidin-4-yl}amino)bicyclo[2.2.1]heptane-2-carboxamide and (1S,2R,3S,4R)-3-({5-fluoro-2-[(1-methyl-1H-pyrazol-4-yl)amino]pyrimidin-4-yl}amino)bicyclo[2.2.1]heptane-2-carboxamide], the Ki on Aurora A is 100 to 1000 nM; on KDR, 100 to 1000 nM; on Aurora B, less than 100 nM. For the same compound, in the test with NCI-H1299 cells, the “EC15 (concentration of inhibitor necessary to induce polyploidy in 15% of cells)” value was “B (“B” represents an EC15 of between 0.1 μM and 1 μM)”.

In the case of `Cn1cc(Nc2ncc(Cl)c(N[C@@H]3[C@H](C(N)=O)[C@@H]4C=C[C@H]3C4)n2)cn1.Cn1cc(Nc2ncc(Cl)c(N[C@H]3[C@@H](C(N)=O)[C@H]4C=C[C@@H]3C4)n2)cn1` (mixture of isomers) [Example 120, (1S,2R,3S,4R)-3-({5-chloro-2-[(1-methyl-1H-pyrazol-4-yl)amino]pyrimidin-4-yl}amino)bicyclo[2.2.1]hept-5-ene-2-carboxamide and (1R,2S,3R,4S)-3-({5-chloro-2-[(1-methyl-1H-pyrazol-4-yl)amino]pyrimidin-4-yl}amino)bicyclo[2.2.1]hept-5-ene-2-carboxamide], the Ki at Aurora A, at KDR and at Aurora B was less than 100 nM in each case. The “EC15 (concentration of inhibitor necessary to induce polyploidy in 15% of cells)” value with NCI-H1299 cells was “B (“B” represents an EC15 of between 0.1 μM and 1 μM)”.

As to `NC(=O)[C@@H]1[C@H](Nc2nc(Nc3cnn(CCO)c3)ncc2F)[C@H]2C=C[C@@H]1C2.NC(=O)[C@H]1[C@@H](Nc2nc(Nc3cnn(CCO)c3)ncc2F)[C@@H]2C=C[C@H]1C2` (mixture of isomers) [Example 11, (1S,2S,3R,4R)-3-[(5-fluoro-2-{[1-(2-hydroxyethyl)-1H-pyrazol-4-yl]amino}pyrimidin-4-yl)amino]bicyclo[2.2.1]hept-5-ene-2-carboxamide and (1R,2R,3S,4S)-3-[(5-fluoro-2-{[1-(2-hydroxyethyl)-1H-pyrazol-4-yl]amino}pyrimidin-4-yl)amino]bicyclo[2.2.1]hept-5-ene-2-carboxamide], the values for the Ki on Aurora A, on KDR and at Aurora B were less than 100 nM, 100 to 1000 nM and less than 100 nM, respectively. The “EC15 (concentration of inhibitor necessary to induce polyploidy in 15% of cells)” value in the test with NCI-H1299 cells is “A (“A” represents an EC15 of less than 0.1 μM)”.

As to `NC(=O)[C@@H]1[C@H]2CC[C@H](C2)[C@@H]1Nc1nc(Nc2cnn(CCO)c2)ncc1F.NC(=O)[C@H]1[C@@H]2CC[C@@H](C2)[C@H]1Nc1nc(Nc2cnn(CCO)c2)ncc1F` (mixture of isomers) [Example 14, (1R,2S,3R,4S)-3-[(5-fluoro-2-{[1-(2-hydroxyethyl)-1H-pyrazol-4-yl]amino}pyrimidin-4-yl)amino]bicyclo[2.2.1]heptane-2-carboxamide and (1S,2R,3S,4R)-3-[(5-fluoro-2-{[1-(2-hydroxyethyl)-1H-pyrazol-4-yl]amino}pyrimidin-4-yl)amino]bicyclo[2.2.1]heptane-2-carboxamide], the figures for the Ki at Aurora A, at KDR and on Aurora B were 100 to 1000 nM, 1000 to 5000 nM and less than 100 nM, respectively. In addition, the “EC15 (concentration of inhibitor necessary to induce polyploidy in 15% of cells)” value in the test with NCI-H1299 cells was “B (“B” represents an EC15 of between 0.1 μM and 1 μM)”.

“(1S,2S,3R,4R)-3-({5-fluoro-2-[(1-methyl-1H-pyrazol-4-yl)amino]pyrimidin-4-yl}amino)bicyclo[2.2.1]hept-5-ene-2-carboxamide and (1R,2R,3S,4S)-3-({5-fluoro-2-[(1-methyl-1H-pyrazol-4-yl)amino]pyrimidin-4-yl}amino)bicyclo[2.2.1]hept-5-ene-2-carboxamide [Example 1]”: the Ki at Aurora A is less than 100 nM; on KDR, 100 to 1000 nM; at Aurora B, less than 100 nM. In addition, the “EC15 (concentration of inhibitor necessary to induce polyploidy in 15% of cells)” value with NCI-H1299 cells was “B (“B” represents an EC15 of between 0.1 μM and 1 μM)”.

On to `CCn1cc(Nc2ncc(F)c(N[C@@H]3[C@H](C(N)=O)[C@H]4C=C[C@@H]3C4)n2)cn1.CCn1cc(Nc2ncc(F)c(N[C@H]3[C@@H](C(N)=O)[C@@H]4C=C[C@H]3C4)n2)cn1` (mixture of isomers) [Example 8, (1S,2S,3R,4R)-3-({2-[(1-ethyl-1H-pyrazol-4-yl)amino]-5-fluoropyrimidin-4-yl}amino)bicyclo[2.2.1]hept-5-ene-2-carboxamide and (1R,2R,3S,4S)-3-({2-[(1-ethyl-1H-pyrazol-4-yl)amino]-5-fluoropyrimidin-4-yl}amino)bicyclo[2.2.1]hept-5-ene-2-carboxamide], for which the values for the Ki at Aurora A, on KDR and on Aurora B were less than 100 nM, 100 to 1000 nM and less than 100 nM, respectively. For the same compound, the “EC15 (concentration of inhibitor necessary to induce polyploidy in 15% of cells)” value in the test with NCI-H1299 cells is given as “A (“A” represents an EC15 of less than 0.1 μM)”.

On to `Cn1cc(Nc2ncc(C(F)(F)F)c(N[C@@H]3CC=CC[C@@H]3C(N)=O)n2)cn1.Cn1cc(Nc2ncc(C(F)(F)F)c(N[C@H]3CC=CC[C@H]3C(N)=O)n2)cn1` (mixture of isomers) [Example 26, (1S,6R)-6-{[2-[(1-methyl-1H-pyrazol-4-yl)amino]-5-(trifluoromethyl)pyrimidin-4-yl]amino}cyclohex-3-ene-1-carboxamide and (1R,6S)-6-{[2-[(1-methyl-1H-pyrazol-4-yl)amino]-5-(trifluoromethyl)pyrimidin-4-yl]amino}cyclohex-3-ene-1-carboxamide], for which the Ki at Aurora A was 1000 to 5000 nM; on KDR it was 1000 to 5000 nM; on Aurora B, less than 100 nM. In the test with NCI-H1299 cells, the “EC15 (concentration of inhibitor necessary to induce polyploidy in 15% of cells)” value is listed as “A (“A” represents an EC15 of less than 0.1 μM)”.

With `Cn1cc(Nc2ncc(C(F)(F)F)c(N[C@@H]3CCC[C@@H]3C(N)=O)n2)cn1.Cn1cc(Nc2ncc(C(F)(F)F)c(N[C@H]3CCC[C@H]3C(N)=O)n2)cn1` (mixture of isomers) [Example 25, (1S,2R)-2-{[2-[(1-methyl-1H-pyrazol-4-yl)amino]-5-(trifluoromethyl)pyrimidin-4-yl]amino}cyclopentanecarboxamide and (1R,2S)-2-{[2-[(1-methyl-1H-pyrazol-4-yl)amino]-5-(trifluoromethyl)pyrimidin-4-yl]amino}cyclopentanecarboxamide], the Ki on Aurora A is 100 to 1000 nM; on KDR it was 100 to 1000 nM; at Aurora B it was less than 100 nM. In addition, the “EC15 (concentration of inhibitor necessary to induce polyploidy in 15% of cells)” value with NCI-H1299 cells was “A (“A” represents an EC15 of less than 0.1 μM)”.

The record behind these values is patent US8426408B2, “Pyrimidine inhibitors of kinases” (AbbVie Inc., priority 2009, dated 2013).
